Columns and labels:
Assay type in all cases: functional, Homo sapiens
MCF7 [1] = experiment: Antiproliferative activity on MCF-7 Cell Growth was determined by measuring [3H]thymidine incorporation at the concentration of 0.1 nM
MCF7 [2] = experiment: Antiproliferative activity on MCF-7 Cell Growth was determined by measuring [3H]thymidine incorporation at the concentration of 10 nM
MCF7 [3] = experiment: Antiproliferative activity on MCF-7 Cell Growth was determined by measuring [3H]thymidine incorporation at the concentration of 1 uM

Row | Structure (SMILES) | Control (MCF7 [1]) [%] | Control (MCF7 [2]) [%] | Control (MCF7 [3]) [%]
1 | COc1cc(C)c(/C=C/C(C)=C/C=C/C(C)=C/C(=O)NC2OC(CO)C(O)C(O)C2O)c(C)c1C (centres undefined) | >50 | >100 | >100
2 | COc1cc(C)c(/C=C/C(C)=C/C=C/C(C)=C/C(=O)NC2OC(C(=O)O)C(O)C(O)C2O)c(C)c1C (centres undefined) | <50 | >50 | <50
3 | COc1cc(C)c(/C=C/C(C)=C/C=C/C(C)=C/C(=O)O)c(C)c1C [ACITRETIN] | >50 | >50 | <50

— ChEMBL document CHEMBL1129809, “N-linked glycoside/glucuronide conjugates of retinoids: acitretin” (1997)
